Tests used:
LPA18:2 in mouse plasma = experiment: Inhibition of LPA in mouse plasma (plasma LPA18:2 assay, LC-MS/MS); type: biochemical, CD1 mice; details: fresh CD1 mouse plasma, LPA18:2, 37° C. for 120 min
Procedure: Effect Example 2. Inhibition of LPA in Mouse Plasma by Compounds
20 mM stock solutions of the compounds were prepared with DMSO and then diluted to 1 mM, which was subjected to a serial 3-fold dilution to yield 10 working solutions.
Collection of Fresh Mouse Plasma:
CD1 mice were euthanized by CO2 inhalation. Approximately 1 mL of whole blood was taken by cardiac puncture, with EDTA-K2 for anticoagulation. The blood was centrifuged at 3220 g for 10 min at 4° C. for plasma collection.
Reactions were performed in a 96-well plate, and the samples were tested in duplicate. 1 μL of each working solution was added to 100 μL of plasma, with the final concentrations of […]. 1 μL of DMSO was added to plasma to serve as blank. The samples were incubated in a water bath at 37° C. for 120 min, and 600 μL of 10 μM tolbutamide in methanol was added to terminate the reaction. Tolbutamide also served as an internal standard. After 5 min of vortex mixing, the samples were centrifuged at 3220 g for 45 min at 4° C. to precipitate the protein. 100 μL of the supernatant was transferred to a new plate, diluted with water based on LC-MS response and peak shapes, mixed well and analyzed by LC-MS/MS.
LPA18:2 was quantified using peak area ratio (LPA18:2/internal standard), requiring no standard curve. For test compounds of different concentrations, LPA data was represented by a percentage decrease of LPA: 100-[((LPA peak area ratio of compound)/(LPA peak area ratio of control))×100]. IC50 was calculated using Graphpad Prism 6.0 software.

CYP3A4 = CYP3A4 (Homo sapiens (Human), UniProt P08684); experiment: Time-dependent inhibition of CYP3A4 (TDI assay, human liver microsomes); type: in vitro ADME; details: for CYP3A4 TDI % @ 10 μM: human liver microsomes, Midazolam substrate, 30 min with NADPH vs 0 min; for time-dependent inhibition on CYP3A4 (conclusion): conclusion drawn from Table 3, 10 μM
Summary of the method: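 Human liver microsomes (final 1 mg/mL) preincubated with test compound for 0 min without NADPH or 30 min with NADPH in 100 mM K-phosphate pH 7.4, 37 °C. Aliquot then diluted into midazolam substrate plus NADPH and incubated 15 min at 37 °C. Quenched with acetonitrile; metabolite read by LC-MS/MS.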

Autotaxin (ATX) = Autotaxin (ATX) (Homo sapiens (Human), UniProt Q13822); experiment: ATX bioactivity assay (Amplex Red / choline oxidase / HRP fluorescence, LPC 16:0 substrate); type: biochemical; details: 30 min room temperature

Chain of CYP3A4 (P08684 whole entry): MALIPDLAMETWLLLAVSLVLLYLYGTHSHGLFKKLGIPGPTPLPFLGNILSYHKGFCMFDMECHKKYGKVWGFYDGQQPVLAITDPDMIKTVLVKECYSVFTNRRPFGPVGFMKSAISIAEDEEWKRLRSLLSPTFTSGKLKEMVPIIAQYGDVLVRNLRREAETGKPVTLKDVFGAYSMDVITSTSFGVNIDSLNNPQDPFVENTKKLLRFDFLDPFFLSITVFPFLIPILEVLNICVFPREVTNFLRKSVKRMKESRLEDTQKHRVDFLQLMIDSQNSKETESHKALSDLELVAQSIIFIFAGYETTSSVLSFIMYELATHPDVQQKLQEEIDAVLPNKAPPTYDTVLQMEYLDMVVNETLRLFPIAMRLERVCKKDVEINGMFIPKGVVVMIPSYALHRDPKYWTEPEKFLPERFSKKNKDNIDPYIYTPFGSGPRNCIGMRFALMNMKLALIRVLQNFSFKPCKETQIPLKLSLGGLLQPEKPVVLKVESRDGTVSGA

SMILES | IC50 (LPA18:2 in mouse plasma) | CYP3A4 TDI % @ 10 μM (CYP3A4) | time-dependent inhibition on CYP3A4 (conclusion) (CYP3A4) | IC50 (Autotaxin (ATX))
CCN(c1nc(-c2ccc(F)cc2)c(C#N)s1)c1c2nc(N3CCN(CC(=O)N4CC(O)C4)CC3)ccc2nn1CC [Compound S-0117, 2-(ethyl(2-ethyl-5-(4-(2-(3-hydroxyazetidin-1-yl)-2-oxoethyl)piperazin-1-yl)-2H-pyrazolo[4,3-b]pyridin-3-yl)amino)-4-(4-fluorophenyl)thiazole-5-carbonitrile] | 38 nM | 15.2% | no time-dependent inhibition on CYP3A4 | 12 nM
CCN(c1nc(-c2ccc(F)cc2)c(C#N)s1)c1c2cc(N3CCN(CC(=O)N4CC(O)C4)CC3)cc(F)c2nn1CC [Compound S-0122, 2-(ethyl(2-ethyl-7-fluoro-5-(4-(2-(3-hydroxyazetidin-1-yl)-2-oxoethyl)piperazin-1-yl)-2H-indazol-3-yl)amino)-4-(4-fluorophenyl)thiazole-5-carbonitrile] | 61 nM | 38.25% | weak time-dependent inhibition on CYP3A4 | 25 nM
CCN(c1nc(-c2ccc(F)cc2)c(C#N)s1)c1c2nc(N3CCN(CC(=O)N4CC(O)C4)CC3)cc(C)c2nn1CC [Compound S-0124, 2-(ethyl(2-ethyl-5-(4-(2-(3-hydroxyazetidin-1-yl)-2-oxoethyl)piperazin-1-yl)-7-methyl-2H-pyrazolo[4,3-b]pyridin-3-yl)amino)-4-(4-fluorophenyl) thiazole-5-carbonitrile] | 96 nM | 8.74% | no time-dependent inhibition on CYP3A4 | 24 nM
CCc1c(N(C)c2nc(-c3ccc(F)cc3)c(C#N)s2)c2nc(N3CCN(CC(=O)N4CC(O)C4)CC3)ccc2n1C [Compound S-0128, 2-((2-ethyl-5-(4-(2-(3-hydroxyazetidin-1-yl)-2-oxoethyl)piperazin-1-yl)-1-methyl-1H-pyrrolo[3,2-b]pyridin-3-yl)(methyl)amino)-4-(4-fluorophenyl)thiazole-5-carbonitrile] | 57 nM | 33.64% | weak time-dependent inhibition on CYP3A4 | 142 nM
CCc1sc2ccc(N3CCN(CC(=O)N4CC(O)C4)CC3)nc2c1N(C)c1nc(-c2ccc(F)cc2)c(C#N)s1 [Compound S-0129, 2-((2-ethyl-5-(4-(2-(3-hydroxyazetidin-1-yl)-2-oxoethyl)piperazin-1-yl)thieno[3,2-b]pyridin-3-yl)(methyl)amino)-4-(4-fluorophenyl)thiazole-5-carbonitrile] | 268 nM | 14.42% | no time-dependent inhibition on CYP3A4 | 264 nM
